Data: PMC7039746 (Cancer chemotherapy and pharmacology, 2020)

Target: EcPNP (Escherichia coli purine nucleoside phosphorylase) (Escherichia coli, UniProt P0ABP8)
Settings: phosphate co-substrate (50 mM potassium phosphate), 100 mM HEPES pH 7.4, 25 °C

Chain of EcPNP (Escherichia coli purine nucleoside phosphorylase) (P0ABP8 2-239): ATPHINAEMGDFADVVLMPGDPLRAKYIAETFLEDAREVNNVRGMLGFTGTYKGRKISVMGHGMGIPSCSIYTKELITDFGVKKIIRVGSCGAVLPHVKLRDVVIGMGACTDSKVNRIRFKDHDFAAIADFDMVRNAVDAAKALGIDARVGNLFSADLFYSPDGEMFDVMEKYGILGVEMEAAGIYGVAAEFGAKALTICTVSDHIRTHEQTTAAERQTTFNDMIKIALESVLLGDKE

Nc1nc(F)nc2c1ncn2[C@@H]1O[C@H](CO)[C@@H](O)[C@@H]1O [F-araA, 9-β-D-arabinofuranosyl-2-F-adenine]
Km: ~950 µM
